A short description of this data set: Cytotoxicity activity against human HepG2 cells assessed by CellTiter-Glo luminescent cell viability assay. Type of data set: toxicity, cell-based. Set-up: assay stage confirmatory assay, source tissue liver. To be noted: HepG2 cells, read-out: IC50 relative. (In general: ATP-based viability assays read luminescence as a measure of living cells.)

The values that follow come from ChEMBL document CHEMBL5303711, “ECBD screening data for assay EOS300108” (2023).

SMILES strings stand for the structures. Where a name gives a salt, the structure may show the parent alone. Active and inactive are the calls of the source. The rule behind the calls is not given here. Where only a bound is given, the exact number is not on record here.

For `C=CC(=O)N1CCC(Oc2cc3c(Nc4ccc(Cl)c(Cl)c4F)ncnc3cc2OC)CC1` [POZIOTINIB], the CC50 was 18.7 µM (inactive). For `C#CCC(Cc1cnc2nc(N)nc(N)c2n1)c1ccc(C(=O)N[C@@H](CCC(=O)O)C(=O)O)cc1` (stereo not given in full) [PRALATREXATE], the CC50 was < 0.1 µM (active).

Take `CO[C@]1(C(=O)N[C@@H](C)c2ccc(-n3cc(F)cn3)nc2)CC[C@H](c2nc(C)cc(Nc3cc(C)[nH]n3)n2)CC1` [PRALSETINIB]: the CC50 was 9.3 µM (active). Next, `COc1cc2nc(N3CCN(C(=O)c4ccco4)CC3)nc(N)c2cc1OC` [PRAZOSIN HYDROCHLORIDE]: 6.6 µM (active). For `C=CC(=O)N1CCN(CCCn2c(=O)c(-c3c(Cl)c(OC)cc(OC)c3Cl)cc3cnc(NC)nc32)CC1` [PRN-1371], the CC50 is 9.6 µM (active). Consider `O=C(CCN1CCC(c2ccccc2)C1)c1ccc2c(c1)OCCO2` (stereo not given) [PROROXAN HYDROCHLORIDE], for which the CC50 is 8.4 µM (active). Next, `CNCCCC1c2ccccc2C=Cc2ccccc21` [PROTRIPTYLINE HYDROCHLORIDE]: 8.9 µM (active); `CC(C)[C@H](CO)Nc1nc(Nc2cccc(Cl)c2)c2ncn(C(C)C)c2n1` [PURVALANOLA]: 14.4 µM (active); `CC(C)(C)c1ccc(CSc2cnn(C(C)(C)C)c(=O)c2Cl)cc1` [PYRIDABEN]: 0.3 µM (active). For the molecule `CCc1nc(N)nc(N)c1-c1ccc(Cl)cc1` [PYRIMETHAMINE], the CC50 is 6 µM (active). For `[O-][n+]1ccccc1S` [PYRITHIONE], the CC50 was 1.1 µM (active). Regarding `CCN(CC)CCCC(C)Nc1c2ccc(Cl)cc2nc2ccc(OC)cc12` (stereo not given) [QUINACRINE DIHYDROCHLORIDE], the CC50 was 1.1 µM (active).

Regarding `Cc1cnc(NC(=O)Nc2cc(Br)c(C)cc2OC[C@@H]2CNCCO2)cn1` [RABUSERTIB], the CC50 was 5.9 µM (active). Turning to `Cn1c(Nc2ccc(C(F)(F)F)cc2)nc2cc(Oc3ccnc(-c4ncc(C(F)(F)F)[nH]4)c3)ccc21` [RAF-265], the CC50 was 1.5 µM (active). Consider `CC(C)(C)Cn1c(N)nc2ccc(-c3[nH]c(C(C)(C)C)nc3-c3ccc(F)cc3)nc21` [RALIMETINIB MESYLATE], for which the CC50 is 13.2 µM (active). For the molecule `Cn1nccc1Nc1nccc(-c2ccn([C@H](CO)c3ccc(Cl)c(F)c3)c(=O)c2)n1` [RAVOXERTINIB], the CC50 is 0.7 µM (active).

Turning to `COc1cc(F)c(F)c(Nc2ccc(I)cc2F)c1NS(=O)(=O)C1(C[C@H](O)CO)CC1` [REFAMETINIB], the CC50 was 0.1 µM (active).

With `CNC(=O)c1cc(Oc2ccc(NC(=O)Nc3ccc(Cl)c(C(F)(F)F)c3)c(F)c2)ccn1` [REGORAFENIB], the CC50 is 1.7 µM (active). Next, `C[C@H]1CNC(=O)c2cnn3ccc(nc23)N[C@H](C)c2cc(F)ccc2O1` [REPOTRECTINIB]: 3.7 µM (active); `COC(=O)[C@H]1[C@H]2C[C@@H]3c4[nH]c5cc(OC)ccc5c4CCN3C[C@H]2C[C@@H](OC(=O)c2cc(OC)c(OC)c(OC)c2)[C@@H]1OC` [RESERPINE]: 11.8 µM (active); `CN(CCN1CCC(OC(=O)Nc2ccccc2-c2ccccc2)CC1)C(=O)c1ccc(CN2CCC(C(N)=O)CC2)cc1` [REVEFENACIN]: 13.2 µM (active).

With `COc1ccc(F)c(F)c1C(=O)c1cnc(NC2CCN(S(C)(=O)=O)CC2)nc1N` [RG-547], the CC50 was 0.5 µM (active).

Take `COCCN1CCN(Cc2ccc(-c3n[nH]c4c3C(=O)c3c(NC(=O)NN5CCOCC5)cccc3-4)cc2)CC1` [RGB-286638]: the CC50 was 0.2 µM (active). For the molecule `O=C(CCCCCCNC(=O)c1cnc(N(c2ccccc2)c2ccccc2)nc1)NO` [RICOLINOSTAT], the CC50 was 3.5 µM (active). As for `Cc1cc(/C=C/C#N)cc(C)c1Nc1ccnc(Nc2ccc(C#N)cc2)n1` [RILPIVIRINE], the CC50 is 11 µM (inactive).

As for `CCOc1cc(C(C)(C)C)ccc1C1=N[C@@](C)(c2ccc(Cl)cc2)[C@@](C)(c2ccc(Cl)cc2)N1C(=O)N1CCN(CCCS(C)(=O)=O)CC1` [RO-5045337], the CC50 was 6.3 µM (active). As for `C[C@@H](OC[C@@]1(c2ccccc2)CC[C@]2(CCC(=O)N2)CN1)c1cc(C(F)(F)F)cc(C(F)(F)F)c1` [ROLAPITANT], the CC50 is 8.9 µM (active). For the molecule `C=C(C)[C@H]1Cc2c(ccc3c2O[C@@H]2COc4cc(OC)c(OC)cc4[C@@H]2C3=O)O1` [ROTENONE], the CC50 was 0.5 µM (active).

As to `O=C(N/N=C/c1ccccc1O)c1ccncc1` [SALINAZID], the CC50 was 9.5 µM (active). For `OCc1cc(C(O)CNCCCCCCOCCCCc2ccccc2)ccc1O` (stereo not given) [SALMETEROL], the CC50 was 6.6 µM (active).

Consider `CC(C)n1nc(-c2ccc3oc(N)nc3c2)c2c(N)ncnc21` [SAPANISERTIB], for which the CC50 is 0.2 µM (active). Next, `Cn1cc(-c2cnn3c(N)c(Br)c([C@@H]4CCCNC4)nc23)cn1` [SCH-900776]: 10.9 µM (active); `CC[C@H](CO)Nc1nc(NCc2ccccc2)c2ncn(C(C)C)c2n1` [SELICICLIB]: 7.8 µM (active). Consider `Cc1cc(F)c(C(=O)Nc2cccc(-c3nncn3C(C)C)n2)cc1-n1cnc(C2CC2)c1` [SELONSERTIB], for which the CC50 was 12.3 µM (active). Regarding `O=C1NCCN1CCN1CCC(c2cn(-c3ccc(F)cc3)c3ccc(Cl)cc23)CC1` [SERTINDOLE], the CC50 is 2.7 µM (active). On to `CN1CCC(CNc2ccc3ncc(-c4cccc(OC(F)(F)F)c4)n3n2)CC1` [SGI-1776], for which the CC50 is 1.5 µM (active). Next, `CCC(C)(C)C(=O)O[C@H]1C[C@@H](C)C=C2C=C[C@H](C)[C@H](CC[C@@H]3C[C@@H](O)CC(=O)O3)[C@H]21` [SIMVASTATIN]: 17.1 µM (inactive); `CO[C@H]1C[C@@H]2CC[C@@H](C)[C@@](O)(O2)C(=O)C(=O)N2CCCC[C@H]2C(=O)O[C@H]([C@H](C)C[C@@H]2CC[C@@H](O)[C@H](OC)C2)CC(=O)[C@H](C)/C=C(\C)[C@@H](O)[C@@H](OC)C(=O)[C@H](C)C[C@H](C)/C=C/C=C/C=C/1C` [SIROLIMUS]: 17.5 µM (inactive); `COCCNCc1ccc(-c2cc3nccc(Oc4ccc(NC(=O)C5(C(=O)Nc6ccc(F)cc6)CC5)cc4F)c3s2)nc1` [SITRAVATINIB]: 4.6 µM (active). Consider `O=C(Nc1cccc(Cl)c1)Nc1ncc(CCNc2ncnc3ccsc23)s1` [SNS-314 MESYLATE], for which the CC50 was 10.1 µM (active). Next, `CC1(C)CC(=O)c2c(C(F)(F)F)nn(-c3ccc(C(N)=O)c(N[C@H]4CC[C@H](O)CC4)c3)c2C1` [SNX-2112]: < 0.1 µM (active); `Cc1c(C(=O)Nc2ccc(N3C[C@@H](C)O[C@@H](C)C3)nc2)cccc1-c1ccc(OC(F)(F)F)cc1` [SONIDEGIB]: 37.3 µM (inactive); `C=CC(=O)Nc1cccc(Nc2nc(Nc3ccc(OCCOC)cc3)ncc2F)c1` [SPEBRUTINIB]: 1.3 µM (active).

Turning to `CCCCCCCCCCCCC/C=C/[C@@H](O)[C@@H](N)CO` [SPHINGOSINE], the CC50 was 11.2 µM (active). Turning to `CCOC(=O)N1CCC(CN(Cc2ccc(Cl)cc2)Cc2ccc([N+](=O)[O-])s2)C1` (stereo not given) [SR9009], the CC50 is 24.4 µM (inactive). For the molecule `N#Cc1cnc(Nc2cc(NC[C@H]3CNCCO3)c(C(F)(F)F)cn2)cn1` [SRA-737], the CC50 is 7.2 µM (active). Next, `COc1ccc2c(c1)/C(=C/c1cnc[nH]1)C(=O)N2` [SU-9516]: 8.9 µM (active); `Clc1ccc(CSC(Cn2ccnc2)c2ccc(Cl)cc2Cl)cc1` (stereo not given) [SULCONAZOLE NITRATE]: 14.9 µM (inactive).

With `O=S(=O)(c1ccccc1)N(CC(F)(F)F)c1ccc(C(O)(C(F)(F)F)C(F)(F)F)cc1` [T091317], the CC50 is 13.4 µM (inactive).

Consider `CC(C)(O)CC(=O)NCCn1ccc2ncnc(Nc3ccc(Oc4cccc(C(F)(F)F)c4)c(Cl)c3)c21` [TAK-285], for which the CC50 was 10.5 µM (active).

As for `Cn1c(=O)c(F)c(Nc2ccc(I)cc2F)c2c(=O)n(C[C@@H](O)CO)cnc21` [TAK-733], the CC50 was < 0.1 µM (active). As for `CCC(CC)C(c1ccc(Nc2nc3ccccc3s2)cc1)n1cncn1` (stereo not given) [TALAROZOLE], the CC50 is 14.4 µM (inactive). Next, `CN[C@H](C(=O)N[C@H](C(=O)N(C)[C@H](/C=C(\C)C(=O)O)C(C)C)C(C)(C)C)C(C)(C)c1ccccc1` [TALTOBULIN]: 0.2 µM (active). In the case of `Cn1c(C#N)ccc1-c1ccc2c(c1)C(C)(C)OC(=S)N2` [TANAPROGET], the CC50 is 4.6 µM (active).

Regarding `Cc1coc2c1C(=O)C(=O)c1c-2ccc2c1CCCC2(C)C` [TANSHINONE IIA], the CC50 is 5 µM (active). With `CC(C)c1c(O)cc(/C=C/c2ccccc2)cc1O` [TAPINAROF], the CC50 was 8.9 µM (active). Take `Cc1nc(-c2cn3c(n2)-c2ccc(-c4cnn(C(C)(C)C(N)=O)c4)cc2OCC3)n(C(C)C)n1` [TASELISIB]: the CC50 is 2.1 µM (active).

`COc1cc([C@@H]2c3cc4c(cc3[C@@H](O[C@@H]3O[C@@H]5CO[C@@H](c6cccs6)O[C@H]5[C@H](O)[C@H]3O)[C@H]3COC(=O)[C@H]23)OCO4)cc(OC)c1O` [TENIPOSIDE]: the CC50 is 6.5 µM (active). For the molecule `CN1CCC(COc2cnc(-c3cccc(Cn4nc(-c5cccc(C#N)c5)ccc4=O)c3)nc2)CC1` [TEPOTINIB], the CC50 was 3.4 µM (active).

For the molecule `CC(C)(C)c1ccc(C(O)CCCN2CCC(C(O)(c3ccccc3)c3ccccc3)CC2)cc1` (stereo not given) [TERFENADINE], the CC50 is 3.1 µM (active). As to `CSc1ccc2c(c1)N(CCC1CCCCN1C)c1ccccc1S2` (stereo not given) [THIORIDAZINE], the CC50 is 3.8 µM (active). On to `COc1cc2nccc(Oc3ccc(NC(=O)Nc4cc(C)on4)c(Cl)c3)c2cc1OC` [TIVOZANIB], for which the CC50 is 6.7 µM (active). Turning to `Cc1ccc(O)c([C@H](CCN(C(C)C)C(C)C)c2ccccc2)c1` [TOLTERODINE TARTRATE], the CC50 is 14.2 µM (active).

With `CCOC(=O)N1c2ccc(C(F)(F)F)cc2[C@@H](N(Cc2cc(C(F)(F)F)cc(C(F)(F)F)c2)C(=O)OC)C[C@H]1CC` [TORCETRAPIB], the CC50 is 6.4 µM (active). Turning to `Cc1ccc(S(=O)(=O)N[C@@H](Cc2ccccc2)C(=O)CCl)cc1` [TPCK], the CC50 was 7.9 µM (active).
